This is an account of results in US10172857B2, “Boosting the effect of methotrexate through the combined use with lipophilic statins” (Dalana3, S.L., priority 2013, dated 2019).

What all share (assay type): cell-based, human
The subject of one experiment is osteosarcoma cells (HOS). The experiment is described as follows: Cell viability test, trypan blue staining and counting in Neubauer chamber. The following applies: for morphological changes: 0.5 μM simvastatin, 50 nM methotrexate or both, 48 and 72 hours; for effect on cell proliferation and cell death (trypan blue counts): FIGS. 6-10. The procedure:
The HOS cells are cultivated in a culture medium supplemented with 5-10% heat-inactivated foetal bovine serum and 2 mM of L-glutamine, at 37° C., 95% humidity and 5% atmospheric CO2. The cells are treated with 0.5 μM of simvastatin and with 50 nM of MTX for 24, 48 and 72 hours. The cells are collected by trypsinization. This involves first aspirating the cultivation medium; the cells are then washed with 2-3 mL of PBS (sterile); add 0.5-1 mL of trypsin-EDTA solution (sterile); incubated at 37° for 5 minutes; the cells are collected with 5 mL of fresh culture medium; and the suspension is placed in a sterile 15 mL tube. The trypan blue dye is used in order to determine cell viability. Trypan blue is a colloid that enters the cells through breaks in the cell membrane. Therefore, the cells that appear in the image, clearly stained blue, are considered to be non-viable. For the measurement, mix 50 μL of the trypan blue solution and 50 μL of cell suspension are placed in a 1.5 mL tube. The mixture is homogenised and 10 μL placed in a Neubauer chamber. The total cells and the non-viable cells (completely stained blue) are counted.

Experiment [1] has as its system HOS cells. The experiment is described as follows: Apoptosis testing by flow cytometry (SubG0 peak). The following applies: 48 hours. For orientation: In flow cytometry, cells or beads pass a laser one at a time.
Experiment [2] relates to HOS cells. In words: Analysis of the cell cycle by flow cytometry (PI). The following applies: for changes in the distribution of the cell cycle (summary): FIGS. 11-15; for changes in the cell cycle with increasing doses: MTX 10-200 nM or SV 0.2-10 μM. The method, then:
In order to analyse the changes in the distribution of the cell cycle the cells are seeded and treated under the same conditions employed with the Annexin V dye. The treated and untreated cells are resuspended in NP-40 at 1% dissolved in PBS additionally containing 50 μg/mL PI at a density of 3×10^5 cells/sample. The analysis and quantification of each of the experimental conditions is then carried out after 15 minutes incubation in the dark and at ambient temperature, following the same methodology as employed in the apoptosis experiments with Annexin-V staining (FACSCalibur flow cytometry and Cell Quest software).

The mark [3] stands for this setting: HOS cells, SV 1 μM alone, 24 hours.

Bounds are passed on as bounds.

In the case of `CN(Cc1cnc2nc(N)nc(N)c2n1)c1ccc(C(=O)N[C@@H](CCC(=O)O)C(=O)O)cc1` [MTX, (2S)-2-[(4-{[(2,4-diaminopteridin-6-yl)methyl](methyl)amino}benzoyl)amino]pentanedioic acid], in the experiment on osteosarcoma cells (HOS), the morphological changes result was “enlarged cells and even those with two nuclei”; the “effect on cell proliferation and cell death (trypan blue counts)” value was “preferentially acts to slow cell proliferation”. For the same molecule, in the experiment on HOS cells [1] (MTX 10-200 nM tested), the “MTX concentration at incipient appearance of the SubG0 peak (cell death by apoptosis)” value was determined as 20 NM. Moreover, the “number of cells quantified in the SubG0 phase” value with HOS cells [1] (doses above 50 nM of MTX) is on record as “significant increase”. Besides, in the experiment on HOS cells [2], the “changes in the distribution of the cell cycle (summary)” value is reported as “halt in the cycle in phase G1”. In addition, in the experiment on HOS cells [2] (HOS cells, 24 hours), the “changes in the cell cycle with increasing doses” value was “decrease in the S phase and in the number of cells in phase G2/M, with subsequent accumulation in the phase G1”.
For the molecule `CCC(C)(C)C(=O)O[C@H]1C[C@@H](C)C=C2C=C[C@H](C)[C@H](CC[C@@H]3C[C@@H](O)CC(=O)O3)[C@H]21` [SV, simvastatin], in the experiment on osteosarcoma cells (HOS), the morphological changes entry is “rounded cells”; the “effect on cell proliferation and cell death (trypan blue counts)” value is recorded as “predominant effect on the induction of cell death”. Also, in the experiment on HOS cells [1] (SV 0.2-10 μM tested), the “SV concentration at appearance of the SubG0 peak (cell death by apoptosis)” value is less than 0.2 µM and the “SV concentration at maximum of the SubG0 peak” value turned out to be 10 µM. The “number of cells quantified in the SubG0 phase” value in the experiment with HOS cells [1] (doses above 0.2 μM SV) is reported as “notable increase”. The “changes in the distribution of the cell cycle (summary)” value in the experiment on HOS cells [2] is “halts the cycle in phase G2/M”. In the experiment on HOS cells [2] (HOS cells, 24 hours), the “changes in the cell cycle with increasing doses” value was “decrease in the S phase and in the number of cells in phase G1 is notable, with subsequent accumulation in the phase G2/M”. In the experiment with HOS cells [2] (setting [3]), the “decrease of the G1 phase compared to the control” value amounted to 19.60% and the “increase of cells in the G2/M phase compared to the control” value came to 40.92%.
